Test results published in patent US10975069B2, “Sigma-2 receptor ligand drug conjugates as antitumor compounds, methods of synthesis and uses thereof” (priority 2014, dated 2021).
Several values for one entry are separate records, joined by “and”; a condition that tells them apart may be missing. Identical values can stand only once.

What was measured:
[1] = system: SYO-1 Synovial sarcoma (SS) xenografts; test: SYO-1 synovial sarcoma xenograft; format: in vivo, athymic nude mice; settings: 300 nmoles for 14 days; FIG. 14E
Protocol: SYO-1 Synovial sarcoma (SS) xenografts were also treated with 300 nmoles SW V-49. […] FIG. 14E depicts athymic nude mice xenograft of SS cell line SYO-1 treated with SW V-49 (300 nmoles) for 14 days and then followed, p<0.0001. SYO xenografts required a smaller dose of SW V-49 to achieve results similar to those achieved against PDAC.

sigma-2 receptors = biological target: T1, sigma-2 receptors (Homo sapiens, UniProt Q5BJF2); test: Competitive inhibition of internalization of fluorescent sigma-2 ligand SW 120 (flow cytometry); format: cell-based; settings: increasing concentrations of SW V-49s (0, 10, 30, 50), 30 min 37 °C, then SW120; FIG. 3
T1 construct: endogenous in cells
T1 sequence (Q5BJF2 whole entry): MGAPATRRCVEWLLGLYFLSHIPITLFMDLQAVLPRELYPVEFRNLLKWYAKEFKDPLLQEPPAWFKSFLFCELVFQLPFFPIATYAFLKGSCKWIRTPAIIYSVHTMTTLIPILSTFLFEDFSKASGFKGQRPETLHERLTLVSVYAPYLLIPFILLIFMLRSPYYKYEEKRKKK
Protocol: In these experiments, competitive binding assays of SW V-49s with the fluorescently labeled sigma-2 ligand SW 120 of structure
AsPC-1 cells (5×10^5/well) were seeded into a 6 well plate for 24 hours before treatment. The cells were then incubated with […] of SW V-49s for 30 minutes at 37° C. Subsequently, 10 nM of fluorescently labeled sigma-2 ligand SW120 was added to the cell culture medium containing SW V-49s. After 30 minute of incubation at 37° C., cells were washed twice with phosphate buffered saline (PBS) and harvested with 0.05% trypsin EDTA (Life Technologies. Grand Island, N.Y.). Thereafter, the cells were centrifuged at 1000×g for 5 minutes and the pellets were washed twice with PBS. Internalization of SW 120 was determined by flow cytometer (FACSCalibur™, BD Biosciences, San Jose, Calif.).

[2] = Toxicity study (necropsy, CBC, clinical chemistry) in tumor bearing mice; format: in vivo, C57BL/6 mice
Protocol: Six adult female mice were submitted to necropsy. The strain designation of the mice was C57BL/6. […]
Animal studies were performed according to the animal studies protocol approved by Washington University Institutional Animal Care Facility. In vivo studies with mice were performed to compare the effects of SW V-49s, SV119. Erastin, a combination of SV119 with Erastin, and vehicle. […] C57BL/6 mice (6 weeks old. National Cancer Institute Laboratories) were injected in the right flank with 200 μL single cell suspension of KCKO cells in RPMI medium (25×10^4/10^5 cells per mouse). Mice were randomized into four groups (n=15). Treatment was started when the mean tumor diameter was ^˜5 mm. […] Erastin, equimolar mix of SV119 and Erastin. Tumors were measured every other day with a digital caliper. Several mice from different treatment groups were sent to the Division of Comparative Medicine in our institution for pathologic evaluation. Blood was collected for complete blood count (CBC) and biochemical analysis (AST, ALT, BUN, total bilirubin, and Cr). Organs were examined grossly and histologically.

[3] = system: PDAC patient-derived xenograft; test: PDAC patient-derived mouse xenograft model; format: in vivo; settings: daily i.p. 375 nmoles for 2 weeks
Protocol: SW V-49s was also tested on a PDAC patient-derived mouse xenograft model, which is more clinically relevant. Surgical PDAC specimens (2×2 mm pieces) were obtained and implanted subcutaneously into the flanks of anesthetized NOD SCID mice. Then, tumors were harvested and implanted in the right flank of Athymic female nude mice (6 weeks old. National Cancer Institute Laboratories). These mice were treated with daily i.p. injections of […] and vehicle for 14 days. Mice were randomized into 2 groups (n=15). Drug treatment was started when the mean tumors diameter was ^˜6 mm. Mice received daily intra peritoneal injections with 375 nmoles in 100 μL/mouse of SW V-49s and vehicle for 2 weeks. Tumors were measured every other day. Mice were euthanized when tumors reached a diameter of 2 cm or ulcerated.

[4] = Table 2, individual mouse, listed as test drug
[5] = Table 3 differential, individual mouse
[6] = Table 3 differential, individual mouse, listed as test drug
[7] = Table 4, individual mouse, listed as test drug
[8] = Table 6, individual mouse (Drug 1-3), treated 10 days
[9] = Table 7, individual mouse (Drug 1-3), treated 10 days
[10] = daily i.p. 375 nmoles for 10 days

CCOc1ccccc1-n1c(CN2CCN(C(=O)COc3ccc(CNCCCCCCN4C5CCCC4CC(OC(=O)Nc4cc(C)ccc4OC)C5)cc3)CC2)nc2ccccc2c1=O.O=C(O)C(=O)O (stereo not shown) [SW V-49s]
tumor growth [1]: Growth inhibition
blocking of SW 120 internalization (sigma-2 receptors): efficient blocking of SW 120 internalization
WBC ([2]; Table 2, individual mouse, daily i.p. over 2 weeks, listed as test drug): 5.68 10^3/μL and 3.34 10^3/μL and 4.16 10^3/μL
Platelets ([2]; Table 2, individual mouse, * mild platelet clumping, listed as test drug): 749* 10^3/μL and 885 10^3/μL and 611 10^3/μL
HGB [2, 4]: 10.7 g/dL and 10.5 g/dL and 9.8 g/dL
MCH [2, 4]: 12.3 pg and 12.5 pg and 12.8 pg
MCHC [2, 4]: 27.2% and 24.8% and 26.0%
MCV [2, 4]: 45.3 u and 50.5 u and 49.2 u
PCV [2, 4]: 39.3% and 42.4% and 37.7%
RBC [2, 4]: 8.67 10^6/μL and 8.40 10^6/μL and 7.66 10^6/μL
Bands [2, 5]: 0%
Basophils [2, 5]: 0%
Eosinophils [2, 5]: 0%
Nrbe [2, 5]: 0%
Lymphocytes [2, 6]: 96% and 78% and 87%
Monocytes [2, 6]: 2% and 4% and 0%
Neutrophils [2, 6]: 2% and 18% and 13%
ALT [2, 7]: 138 u/L and 64 u/L and 63 u/L
AST [2, 7]: 167 u/L and 147 u/L and 55 u/L
BUN [2, 7]: 19 mg/dL and 22 mg/dL and 17 mg/dL
Creatinine [2, 7]: 0.22 mg/dL and 0.21 mg/dL and 0.24 mg/dL
Glucose [2, 7]: 178 mg/dL and 310 mg/dL and 180 mg/dL
Total Protein [2, 7]: 5.1 g/dL (2×) and 5.7 g/dL
HGB [2, 8]: 9.8 g/dL and 10.7 g/dL and 10.5 g/dL
MCH [2, 8]: 12.8 pg and 12.3 pg and 12.5 pg
MCHC [2, 8]: 26.0% and 27.2% and 24.8%
MCV [2, 8]: 49.2 u and 45.3 u and 50.5 u
PCV [2, 8]: 37.7% and 39.3% and 42.4%
Platelets [2, 8]: 611 10^3/μL and 749 10^3/μL and 885 10^3/μL
RBC [2, 8]: 7.66 10^6/μL and 8.67 10^6/μL and 8.40 10^6/μL
WBC [2, 8]: 4.16 10^3/μL and 5.68 10^3/μL and 3.34 10^3/μL
ALT [2, 9]: 138 μ/L and 64 μ/L and 63 μ/L
AST [2, 9]: 167 μ/L and 147 μ/L and 55 μ/L
BUN [2, 9]: 19 mg/dL and 22 mg/dL and 17 mg/dL
Creatinine [2, 9]: 0.22 mg/dL and 0.21 mg/dL and 0.24 mg/dL
Glucose [2, 9]: 178 mg/dL and 310 mg/dL and 180 mg/dL
Total Protein [2, 9]: 5.1 g/dL (2×) and 5.7 g/dL
mice behavior and drug-related deaths [2, 10]: no gross abnormalities in the mice behavior (grooming) or any drug-related deaths were recorded
organs analyses (brain, heart, lungs, alimentary tract, kidneys, liver and pancreas), adverse drug effects [2, 10]: did not reveal any obvious signs of adverse drug effects, except a mild peritonitis
serum labs (CBC, AST, ALT, BUN, total bilirubin, and Cr) [2, 10]: unchanged
histopathologic finding in drug-treated versus control animals ([2]; daily i.p. over 2 weeks): minimal to moderate chronic peritonitis
Body weight ([2]; pre-necropsy, individual mouse, daily i.p. over 2 weeks, listed as test drug): 21 grams and 19 grams and 22 grams
differences in cell counts (CBC) versus vehicle ([2]; treated for 10 days, Table 6): not statistically significant
tolerability [3]: tolerated the treatment well without obvious off-target effects
growth rate of established tumors ([3]; FIG. 14C): markedly slowed the growth rate of the established tumors
median survival ([3]; vehicle 33 days, FIG. 14D): 58 days
